Measured values reported in US10166302B2, “Labeling composition for cancer lesion” (NATIONAL CANCER CENTER, priority 2012, dated 2019).

Columns and labels:
[1] = 18 breast cancer patients (T. Kitai, et al., Breast Cancer, 12:211-215, 2005); cited from earlier work
[2] = Signal intensity of near-infrared fluorescence of ICG-MAA complexes at various ICG and MAA mixing ratios; assay type: physicochemical; details: for Signal intensity of near-infrared fluorescence: MAA 0 mg/ml

- Signal intensity of near-infrared fluorescence ([2]; ICG 9.0 μM): 289
- Signal intensity of near-infrared fluorescence ([2]; ICG 12.9 μM): 363
- Signal intensity of near-infrared fluorescence ([2]; ICG 25.8 μM): 466
- Signal intensity of near-infrared fluorescence ([2]; ICG 38.7 μM): 425
- Signal intensity of near-infrared fluorescence ([2]; ICG 51.6 μM): 399
- Signal intensity of near-infrared fluorescence ([2]; ICG 64.5 μM): 374
- Signal intensity of near-infrared fluorescence ([2]; ICG 77.4 μM): 332
- Signal intensity of near-infrared fluorescence ([2]; ICG 103 μM): 289
- Signal intensity of near-infrared fluorescence ([2]; ICG 258 μM): 139
- Signal intensity of near-infrared fluorescence ([2]; ICG 516 μM): 71
- Signal intensity of near-infrared fluorescence ([2]; ICG 774 μM): 39
- Signal intensity of near-infrared fluorescence ([2]; ICG 1032 μM): 30
- ICG concentration showing the highest value of signal intensity of near-infrared fluorescence ([2]; MAA was not treated): 25.8 µM
Structure (SMILES): CC1(C)C(/C=C/C=C/C=C/C=C2\N(CCCCS(=O)(=O)O)c3ccc4ccccc4c3C2(C)C)=[N+](CCCCS(=O)(=O)[O-])c2ccc3ccccc3c21 [ICG, indocyanine green]
- Clinical safety [1]: safely used
